This is an account of results in US20260016464A1, “METHOD FOR CHARACTERIZING, TYPING AND IDENTIFYING CELLS AND USE THEREOF” (Yigong Ruixin (Xiamen) Technology Co., Ltd, priority 2023, published 2026).

Molecules are shown by their SMILES.

Assay [1] deals with non-small cell lung cancer cells A549. Briefly: Cell viability measured by MTT assay (control method). It counts as cell-based. As to the method:
(§1) Please refer to FIG. 40, FIG. 41 and FIG. 42. FIG. 40 is a schematic diagram of the operation process of the cell viability detection method; FIG. 41 is a comparison diagram of cell viability measured by MTT method and cellular mechanical force measured by the device or system or method of the present invention after A549 cells are treated with different doses of 5FU for 24 h; FIG. 42 is a comparison diagram of cell viability measured by MTT method and cellular mechanical force measured by the device or system or method of the present invention after A549 cells are treated with different doses of 5FU for different times.
(§2) Specifically, in this example, non-small cell lung cancer cells A549 are cultured on multiple cellular mechanical force detection devices, treated with different doses of the cell proliferation inhibitory drug 5-fluorouracil (5-FU), and cellular mechanical force at different time points is monitored by the characterization system for cell/multicellular aggregate interaction described in any one of examples 10 to 12 or the cellular mechanical force detection method described in example 14. Cell proliferation and cytotoxicity at different time points are monitored by CCK-8 kit, and cell viability measured by MTT assay is used as a control group to obtain data in FIGS. 41 and 42.

Assay [2] has the same test system. Briefly: Cell viability reflected by cellular mechanical force (cellular mechanical force detection device). The assay is classed as cell-based.
Description: This example specifically provides application of cellular physical information acquired by the characterization system for cell/multicellular aggregate interaction described in any one of examples 10 to 12 or the cellular mechanical force detection method described in example 14 in monitoring cell viability.
as §1, §2

[3] abbreviates: different doses and times of treatment (FIGS. 41 and 42).

Take `O=c1[nH]cc(F)c(=O)[nH]1` [5FU, 5-fluorouracil]: the “cell viability measured by the MTT assay” value in assay [1] (setting [3]) is reported as “gradually decreasing trend in a dose-dependent manner”. For the same molecule, the “change in cell viability measured by the MTT method” value in assay [1] (within 12 h of treatment (FIG. 42)) is given as “not obvious”. In assay [2] (setting [3]), the “cell viability reflected by the cellular mechanical force” value is recorded as “gradually decreasing trend in a dose-dependent manner”. For the same molecule, in assay [2] (different doses, 24 h, compared with control group DMSO (FIG. 41)), the “reduction range of cell viability reflected by mechanical force” value is on record as “larger than that reflected by the traditional MTT assay”. Also, the “time at which a significant decreasing trend of cellular mechanical force can be observed” value is given as 6 h in assay [2] (treatment dose of 0.5 μM (FIG. 42)) and 3 h in assay [2] (treatment dose of 1 μM (FIG. 42)).
